Test results taken from the supplement of paper PMC10307832.

Assays:
Test in all cases: relative viability (nuclei count vs DMSO), 5 days (fraction); higher = more cells survive
NCI-H2228 = test system: NCI-H2228
Method in brief: (§1)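 Five library-drug doses in √10 steps were combined with a fixed anchor-drug dose, or a single drug was given alone, by pin tool to lung cancer cell lines in 1536-well plates the day after seeding. Nuclei were stained and counted after 5 days. Relative viability is the nuclei count in treated wells over that in vehicle wells, taken as the median of duplicate plates.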

SW 1573 = test system: SW 1573
Method in brief: as §1

NCI-H1755 = test system: NCI-H1755
Method in brief: as §1

NCI-H1792 = test system: NCI-H1792
Method in brief: as §1

NCI-H650 = test system: NCI-H650
Method in brief: as §1

NCI-H1915 = test system: NCI-H1915
Method in brief: as §1

SK-LU-1 = test system: SK-LU-1
Method in brief: as §1

HCC-366 = test system: HCC-366
Method in brief: as §1

LCLC-103H = test system: LCLC-103H
Method in brief: as §1

NCI-H1355 = test system: NCI-H1355
Method in brief: as §1

NCI-H2347 = test system: NCI-H2347
Method in brief: as §1

RERF-LC-KJ = test system: RERF-LC-KJ
Method in brief: as §1

NCI-H23 = test system: NCI-H23
Method in brief: as §1

NCI-H1993 = test system: NCI-H1993
Method in brief: as §1

A-427 = test system: A-427
Method in brief: as §1

UMC-11 = test system: UMC-11
Method in brief: as §1

NCI-H1975 = test system: NCI-H1975
Method in brief: as §1

NCI-H1734 = test system: NCI-H1734
Method in brief: as §1

HCC-827 = test system: HCC-827
Method in brief: as §1

LC-2-ad = test system: LC-2-ad
Method in brief: as §1

Nc1cccc2c1CN(C1CCC(=O)NC1=O)C2=O (stereo not drawn) [Lenalidomide] + CC(C)C[C@H](NC(=O)[C@H](Cc1ccccc1)NC(=O)c1cnccn1)B(O)O [Bortezomib] (partner 0.002 µM)
relative viability (NCI-H2228; first compound 0.253 µM): 1
relative viability (NCI-H2228; first compound 0.8 µM): 0.986
relative viability (NCI-H2228; first compound 2.53 µM): 1.12
relative viability (NCI-H2228; first compound 8 µM): 0.942
relative viability (SW 1573; first compound 0.253 µM): 1.14
relative viability (SW 1573; first compound 0.8 µM): 1.05
relative viability (SW 1573; first compound 2.53 µM): 1.23
relative viability (SW 1573; first compound 8 µM): 1.03
relative viability (NCI-H1755; first compound 0.253 µM): 0.855
relative viability (NCI-H1755; first compound 0.8 µM): 0.854
relative viability (NCI-H1755; first compound 2.53 µM): 0.947
relative viability (NCI-H1755; first compound 8 µM): 0.913
relative viability (NCI-H1792; first compound 0.253 µM): 1
relative viability (NCI-H1792; first compound 0.8 µM): 0.773
relative viability (NCI-H1792; first compound 2.53 µM): 0.96
relative viability (NCI-H1792; first compound 8 µM): 0.964
relative viability (NCI-H650; first compound 0.253 µM): 0.854
relative viability (NCI-H650; first compound 2.53 µM): 0.893
relative viability (NCI-H650; first compound 8 µM): 0.577
relative viability (NCI-H1915; first compound 0.253 µM): 0.985
relative viability (NCI-H1915; first compound 0.8 µM): 0.69
relative viability (NCI-H1915; first compound 2.53 µM): 1.06
relative viability (NCI-H1915; first compound 8 µM): 0.952
relative viability (SK-LU-1; first compound 0.253 µM): 1.31
relative viability (SK-LU-1; first compound 0.8 µM): 1.38
relative viability (SK-LU-1; first compound 2.53 µM): 1.25
relative viability (SK-LU-1; first compound 8 µM): 0.862
relative viability (HCC-366; first compound 0.253 µM): 0.985
relative viability (HCC-366; first compound 0.8 µM): 1.03
relative viability (HCC-366; first compound 2.53 µM): 1.08
relative viability (HCC-366; first compound 8 µM): 1.05
relative viability (LCLC-103H; first compound 0.253 µM): 1.01
relative viability (LCLC-103H; first compound 0.8 µM): 0.966
relative viability (LCLC-103H; first compound 2.53 µM): 1.01
relative viability (LCLC-103H; first compound 8 µM): 0.869
relative viability (NCI-H1355; first compound 0.253 µM): 1.23
relative viability (NCI-H1355; first compound 0.8 µM): 0.426
relative viability (NCI-H1355; first compound 2.53 µM): 1.29
relative viability (NCI-H1355; first compound 8 µM): 1.03
relative viability (NCI-H2347; first compound 0.253 µM): 1.1
relative viability (NCI-H2347; first compound 0.8 µM): 0.904
relative viability (NCI-H2347; first compound 2.53 µM): 0.979
relative viability (NCI-H2347; first compound 8 µM): 0.435
relative viability (RERF-LC-KJ; first compound 0.253 µM): 1.13
relative viability (RERF-LC-KJ; first compound 0.8 µM): 0.934
relative viability (RERF-LC-KJ; first compound 2.53 µM): 1.09
relative viability (RERF-LC-KJ; first compound 8 µM): 0.974
relative viability (NCI-H23; first compound 0.253 µM): 1.12
relative viability (NCI-H23; first compound 0.8 µM): 1.03
relative viability (NCI-H23; first compound 2.53 µM): 1.3
relative viability (NCI-H23; first compound 8 µM): 0.9
relative viability (NCI-H1993; first compound 0.253 µM): 1.07
relative viability (NCI-H1993; first compound 0.8 µM): 0.951
relative viability (NCI-H1993; first compound 2.53 µM): 1.12
relative viability (NCI-H1993; first compound 8 µM): 0.675
relative viability (A-427; first compound 0.253 µM): 1.08
relative viability (A-427; first compound 2.53 µM): 0.951
relative viability (A-427; first compound 8 µM): 0.908
relative viability (UMC-11; first compound 0.253 µM): 0.526
relative viability (UMC-11; first compound 0.8 µM): 0.332
relative viability (UMC-11; first compound 2.53 µM): 0.856
relative viability (UMC-11; first compound 8 µM): 0.635
relative viability (NCI-H1975; first compound 0.253 µM): 0.447
relative viability (NCI-H1975; first compound 0.8 µM): 0.341
relative viability (NCI-H1975; first compound 2.53 µM): 0.412
relative viability (NCI-H1975; first compound 8 µM): 0.379
relative viability (NCI-H1734; first compound 0.253 µM): 0.896
relative viability (NCI-H1734; first compound 0.8 µM): 0.907
relative viability (NCI-H1734; first compound 2.53 µM): 1.02
relative viability (NCI-H1734; first compound 8 µM): 0.807
relative viability (HCC-827; first compound 0.253 µM): 1.09
relative viability (HCC-827; first compound 0.8 µM): 0.798
relative viability (HCC-827; first compound 2.53 µM): 1.09
relative viability (HCC-827; first compound 8 µM): 1.04
relative viability (LC-2-ad; first compound 0.253 µM): 0.979
relative viability (LC-2-ad; first compound 0.8 µM): 1.04
relative viability (LC-2-ad; first compound 2.53 µM): 1.03
relative viability (LC-2-ad; first compound 8 µM): 1.21
